The structures appear in SMILES notation.

What is called IC50 is the concentration that gives 50% inhibition.

For this assay, the system named is HCT-116. Nature of the assay: Antiproliferative activity against human HCT116 cells assessed as reduction in cell viability incubated for 72 hrs by MTT assay. As to conditions: HCT-116, 72 h. In kind it is functional, cell-based.
On to `CC(=O)CC(=O)/C=C/c1ccc(O)c(O)c1`, for which the concentration for half-maximal inhibition (IC50) amounted to 5.2 µM. As for `COc1cc(CCC(=O)CC(C)=O)ccc1O`, the IC50 is 182 µM. Next, `COc1cc(/C=C/C(=O)CC(C)=O)ccc1O`: 1.4 µM; `CC(=O)CC(=O)/C=C/c1ccc(O)cc1`: 36 µM; `COc1ccc(/C=C/C(=O)CC(C)=O)cc1OC`: 4.7 µM. Next, `CC(=O)CC(=O)CCc1ccc(O)cc1`: 213 µM. With `COc1ccc(CCC(=O)CC(C)=O)cc1OC` the figure was 215 µM; with `COc1cc(/C=C/C(=O)CC(C)=O)cc(OC)c1OC`, 28.8 µM; with `COc1cc(/C=C/C(=O)CC(C)=O)cc(OC)c1O`, 24.7 µM. As to `COc1cc(OC)c(/C=C/C(=O)CC(C)=O)c(OC)c1`, the IC50 came out at 8.5 µM. Next, `COc1cc(OC)c(CCC(=O)CC(C)=O)c(OC)c1`: 139 µM; `COc1cc(CCC(=O)CC(C)=O)cc(OC)c1OC`: 138 µM. Next, `COc1cc(/C=C/C(=O)CC(=O)/C=C/c2ccc(O)c(OC)c2)ccc1O` [CURCUMIN]: 10.5 µM.

(Values after ChEMBL document CHEMBL4385650, “X-ray crystal structures, density functional theory and docking on deacetylase enzyme for antiproliferative activity of hispolon derivatives on HCT116 colon cancer” (Bioorg Med Chem, 2019).)
